In brackets after ≈: the same amount, converted by molar mass.
What was measured:
[1] = Acute toxcity test; settings: in vivo, male ICR-mouse, after 1 week
Method: Further, in order to illustrate the usefulness of the compounds (I) as a drug, compounds of Examples 12, 18 and 36 were tested for acute toxcity by using 4 weeks-old male ICR-mouse as a test animal.
the compounds were dissolved in physiological saline and phosphate buffered solution (pH 7.0), or if they were […], suspended in carboxymethylcellulose or gum Arabic and then mixed with phosphate buffered solution.
The solution or mixture was administered to the tested animals intravenously or subcutaneously and, after 1 week, the number of surviving animals was calculated.

[2] = tested on: Salmonella typhimurium; test: Antibacterial activity, MIC by Agar dilution method, standard test strain 16; type: cell-based; settings: Salmonella enterica, 10^7 CFU/ml, 37° C., 18 hours
Method: (§1) The antibacterial activity was determined by an Agar dilution method as described below.
(§2) That is, the two-fold serial dilutions of the antibacterial compounds (1000 μg compound/ml) were prepared and dispersed in Muller Hinton Agar in a petri dish to a concentration of 100~0.002 μg/ml. The culture broths of standard test strains were inoculated on the medium to a concentration 10^7 CFU/ml, and incubated at 37° C. for 18 hours. The concentration of compounds(I) at which the strains were not grown was regarded as minimum inhibition concentration (MIC).
(§3) The results of antibacterial activity test of the representative examples of the compound (I) against 20 standard test strains shown in terms of MIC were indicated in Table 1.
16. Salmonella typhimurium

[3] = tested on: Streptococcus faecium MD 86; test: Antibacterial activity, MIC by Agar dilution method, standard test strain 3; type: cell-based; settings: Enterococcus faecium, MD86, 10^7 CFU/ml, 37° C., 18 hours
Method: as §1, §2, §3
3. Streptococcus faecium MD 86

[4] = tested on: Pseudomonas aeruginosa 1771M; test: Antibacterial activity, MIC by Agar dilution method, standard test strain 15; type: cell-based; settings: 18 h
Method: as §1, §2, §3
15. Pseudomonas aeruginosa 1771M

[5] = tested on: Escherichia coli DC 2; test: Antibacterial activity, MIC by Agar dilution method, standard test strain 9; type: cell-based; settings: Escherichia coli, DC2, 18 h
Method: as §1, §2, §3

[6] = tested on: Escherichia coli TEM; test: Antibacterial activity, MIC by Agar dilution method, standard test strain 10; type: cell-based; settings: Escherichia coli TEM; 10^7 CFU/ml, 37° C., 18 hours; read-out: MIC
Method: as §1, §2, §3

[7] = tested on: Serratia spp; test: MIC against clinically isolated strains; type: cell-based; settings: 18 h, 20 clinical isolates
Method: as §1, §2

[8] = tested on: Escherichia coli; test: MIC against clinically isolated strains; type: cell-based; settings: 18 h, 20 clinical isolates
Method: as §1, §2

[9] = tested on: Proteus mirabilis; test: MIC against clinically isolated strains; type: cell-based; settings: 18 h, 4 clinical isolates
Method: as §1, §2

[10] = tested on: Enterococcus II; test: MIC against clinically isolated strains; type: cell-based; settings: 20 clinical isolates
Method: as §1, §2

[11] = tested on: Enterococcus I; test: MIC against clinically isolated strains; type: cell-based; settings: 18 h, 20 clinical isolates
Method: as §1, §2

[12] = tested on: Proteus vulgaris; test: MIC against clinically isolated strains; type: cell-based; settings: 18 h, 5 clinical isolates
Method: as §1, §2

[13] = biological target: T1, β-lactamase from Enterobacter cloacae P99 (Enterobacter cloacae, UniProt P05364); test: Stability against β-lactamase, relative hydrolysis; type: biochemical; settings: Enterobacter cloacae P99 enzyme; 100 μM; relative(percentage), Cephaloridine taken as 100; OD at 260 nm
T1 construct: directly isolated from Enterobacter cloacae P99, E. coli TEM and Citrobacter freundii; endogenous in cells; host or cells: Enterobacter cloacae P99
T1 sequence (P05364 21-381): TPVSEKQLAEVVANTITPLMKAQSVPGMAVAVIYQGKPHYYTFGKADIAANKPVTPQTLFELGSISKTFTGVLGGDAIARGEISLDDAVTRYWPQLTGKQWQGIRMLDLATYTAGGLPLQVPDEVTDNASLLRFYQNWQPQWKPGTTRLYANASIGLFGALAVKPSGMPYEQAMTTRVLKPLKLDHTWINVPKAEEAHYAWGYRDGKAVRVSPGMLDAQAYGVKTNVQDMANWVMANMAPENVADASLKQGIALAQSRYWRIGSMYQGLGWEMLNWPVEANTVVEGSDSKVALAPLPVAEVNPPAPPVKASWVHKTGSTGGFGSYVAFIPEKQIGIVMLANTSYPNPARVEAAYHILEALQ
Method: The β-lactamases employed in the test were directly isolated from Enterobacter cloacae P99, E. coli TEM and Citrobacter freundii, and the antibiotics for comparison were Cephaloridine, Cephradine, Cefoperazone and Cefotaxime.
The relative hydrolysis of various compounds were calculated relative to the OD of Cephaloridine.

[14] = tested on: Streptococcus pyogenes 77A; test: Treatment effect on systemic infection model; type: in vivo; settings: im, read-out: PD50
Method: The antibacterial activity test on systemic infection model was carried out using the compound of Example 18 as follows: 0.3 ml of diluted solution containing lethal dose of strain was administered intraperitoneally to the test animal, and then 5 to 0.078 mg/kg of compound was administered intramuscularly.

[15] = tested on: β-lactamase producing strains such as Pseudomonas aeruginosa and Enterobacter cloacae; test: Antibacterial activity against β-lactamase producing strains (summary in words); type: cell-based
Method: as §1, §2

[16] = tested on: Streptococcus pyogenes A 77; test: Antibacterial activity, MIC by Agar dilution method, standard test strain 2; type: cell-based; settings: A77, 10^7 CFU/ml, 37° C., 18 hours
Method: as §1, §2, §3
2. Streptococcus pyogenes A 77

## CON=C(C(=O)NC1C(=O)N2C(C(=O)[O-])=C(C[n+]3nn(N)c4ccccc43)CSC12)c1csc(N)n1 [Example 18, (6R,7R)-7-[(Z)-2-(2-aminothiazol-4-yl)-2-methoxyiminoacetamido]-3-[(1-aminobenzotriazol-3-ium)methyl]-ceph-3-em-4-carboxylate]
[1]; sc, Subcutaneous administration
  LD50 at 168 h: > 6000 mg/kg
[1]; Intravenous administration
  LD50 at 168 h: > 4000 mg/kg
[2]
  MIC: 0.195 µg/mL (≈ 0.368 µM)
[3]
  MIC: > 100 µg/mL
[4]
  MIC: 0.781 µg/mL (≈ 1.47 µM)
[5]
  MIC: 0.025 µg/mL (≈ 0.0472 µM)
[6]
  MIC: 0.013 µg/mL (≈ 0.0245 µM)
[7]
  MIC: 0.013 to 0.098 µg/mL (≈ 0.0245 to 0.185 µM)
  MIC50: 0.025 µg/mL (≈ 0.0472 µM)
  MIC90: 0.049 µg/mL (≈ 0.0925 µM)
[8]
  MIC: 0.007 to 0.195 µg/mL (≈ 0.0132 to 0.368 µM)
  MIC50: 0.013 µg/mL (≈ 0.0245 µM)
  MIC90: 0.025 µg/mL (≈ 0.0472 µM)
[9]
  MIC: 0.013 to 0.098 µg/mL (≈ 0.0245 to 0.185 µM)
  MIC50: 0.013 µg/mL (≈ 0.0245 µM)
  MIC90: 0.098 µg/mL (≈ 0.185 µM)
[10]
  MIC Range: 0.004 to 25 µg/mL
[10]; 18 h
  MIC50: 0.025 µg/mL (≈ 0.0472 µM)
  MIC90: 0.098 µg/mL (≈ 0.185 µM)
[11]
  MIC: 0.007 to 0.195 µg/mL (≈ 0.0132 to 0.368 µM)
  MIC50: 0.025 µg/mL (≈ 0.0472 µM)
  MIC90: 0.049 µg/mL (≈ 0.0925 µM)
[12]
  MIC: 0.025 to 0.195 µg/mL (≈ 0.0472 to 0.368 µM)
  MIC50: 0.098 µg/mL (≈ 0.185 µM)
  MIC90: 0.195 µg/mL (≈ 0.368 µM)
[13]
  Relative hydrolysis by β-lactamase: 0.0
[14]
  ED50: 0.27 mg/kg
[15]
  antibacterial activity (in words): superior activity
[16]
  MIC: 0.004 µg/mL (≈ 0.00755 µM)
